According to patent US9040714B2 (MannKind Corporation, priority 2010, dated 2015):

Each compound was assayed on IRE-1α-mediated XBP-1 splicing in human myeloma MM.1s cells (assay: Cellular EC50: endogenous XBP-1 splicing in myeloma cells by RT-PCR (DTT stress)). Details: MM1.S, average cellular EC50, XBP-1 splicing in myeloma cells, read-out: EC50_av.
Format: cell-based
Procedure: Human myeloma MM.1s cells are incubated with a compound for 1.25 hours before stressing the cells with 2 mM dithiothreitol (DTT). After an additional 45 minutes (2 hours total) with compound and DTT, the cells are harvested with TRIZOL® (a mono-phasic solution of phenol and guanidine isothiocyanate), and total RNA is prepared as directed by the manufacturer (Invitrogen). Human XBP-1 is amplified by RT-PCR with the following primers, which flank the 26 base unconventional intron excised by IRE-1α:
RT-PCR of unstressed (U) cells then generates the upper band. When cells are stressed (S) with the endoplasmic reticulum (ER) stressing agent DTT, IRE-1α is activated due to accumulating unfolded protein and the resulting RT-PCR, product is 26 base pairs shorter.
Compounds which pass specificity assays are assayed for cellular EC50 using endogenous XBP-1 splicing in myeloma cells. XBP-1 is regulated through the excision of a 26 nucleotide intron from the XBP-1 mRNA by the highly specific endoribonuclease activity of IRE-1α. […] This splicing event is used to measure IRE-1α activity on XBP-1 mRNA in cells and tissues.
Briefly, compounds are incubated in the presence or absence of an ER stress agent (e.g., DTT), and the ratio of XBP-1u (unspliced) to XBP-1 s (spliced) is quantified by RT-PCR. The ED50 is determined as the 50% XBP-1s to total XPB-1 levels.

| EC50 | SMILES |
| --- | --- |
| < 10 µM | Cc1c(-c2ccc(C(=O)NCCN3CCOCC3)cc2)c(=O)oc2c(C=O)c(O)ccc12 [Example 3] |
| > 10 µM | COc1cc2c(=O)c(CCC(=O)NCCN(C)C)c(C)oc2c(C=O)c1O [Example 214] |
| < 10 µM | COCCNC(=O)CCc1c(C)oc2c(C=O)c(O)ccc2c1=O [Example 215] |
| < 10 µM | Cc1oc2c(C=O)c(O)ccc2c(=O)c1CCC(=O)N1CCOCC1 [Example 216] |
| < 10 µM | CCNC(=O)CCc1c(C)oc2c(C=O)c(O)ccc2c1=O [Example 217] |
| > 10 µM | Cc1oc2c(C=O)c(O)ccc2c(=O)c1CCC(=O)NCCN(C)C [Example 218] |
| > 10 µM | Cc1oc2c(C=O)c(O)ccc2c(=O)c1CCC(=O)NCCN1CCOCC1 [Example 219] |
| < 10 µM | COCCNC(=O)Cc1c(C)oc2c(C=O)c(O)ccc2c1=O [Example 220] |
| > 10 µM | Cc1oc2c(C=O)c(O)ccc2c(=O)c1CC(=O)N1CCOCC1 [Example 221] |
| < 10 µM | CCNC(=O)Cc1c(C)oc2c(C=O)c(O)ccc2c1=O [Example 223] |
| > 10 µM | Cc1oc2c(C=O)c(O)ccc2c(=O)c1CC(=O)NCCN(C)C [Example 224] |
| > 10 µM | Cc1oc2c(C=O)c(O)ccc2c(=O)c1CC(=O)NCCN1CCOCC1 [Example 225] |
| < 10 µM | COCCNC(=O)Cc1c(C)oc2c(C=O)c(O)cc(OC)c2c1=O [Example 226] |
| < 10 µM | COc1cc(O)c(C=O)c2oc(C)c(CC(=O)N3CCOCC3)c(=O)c12 [Example 227] |
| < 10 µM | CCNC(=O)Cc1c(C)oc2c(C=O)c(O)cc(OC)c2c1=O [Example 228] |
| > 10 µM | Cn1c(CCC(=O)N2CCOCC2)nc2ccc(O)c(C=O)c21 [Example 229] |
| > 10 µM | CCNC(=O)CCc1nc2c(C=O)c(O)ccc2n1C [Example 230] |
| > 10 µM | COCCNC(=O)CCc1nc2c(C=O)c(O)ccc2[nH]1 [Example 231] |
| > 10 µM | O=Cc1c(O)ccc2[nH]c(CCC(=O)N3CCOCC3)nc12 [Example 232] |
| < 10 µM | CN1CCC(NC(=O)CCc2nc3c(C=O)c(O)ccc3[nH]2)CC1 [Example 233] |
| > 10 µM | CCNC(=O)CCc1nc2c(C=O)c(O)ccc2[nH]1 [Example 234] |
| > 10 µM | O=Cc1c(O)ccc2nc(CCC(=O)NCCN3CCOCC3)[nH]c12 [Example 235] |
| > 10 µM | CN(C)CCNC(=O)CCc1nc2c(C=O)c(O)ccc2[nH]1 [Example 236] |
| > 10 µM | COCCNC(=O)CCc1nc2ccc(O)c(C=O)c2n1C [Example 237] |

| EC50 | SMILES |
| --- | --- |
| > 10 µM | Cn1c(CCC(=O)NCCN2CCOCC2)nc2ccc(O)c(C=O)c21 [Example 238] |
| > 10 µM | CN1CCN(C(=O)CCc2nc3ccc(O)c(C=O)c3n2C)CC1 [Example 239] |
| > 10 µM | Cn1c(CCC(=O)O)nc2ccc(O)c(C=O)c21 [Example 240] |
| > 10 µM | COCCNC(=O)CCc1nc2c(C=O)c(O)ccc2n1C [Example 241] |
| > 10 µM | Cn1c(CCC(=O)N2CCOCC2)nc2c(C=O)c(O)ccc21 [Example 242] |
| > 10 µM | Cn1c(CCC(=O)NCCN2CCOCC2)nc2c(C=O)c(O)ccc21 [Example 243] |
| > 10 µM | CN1CCN(C(=O)CCc2nc3c(C=O)c(O)ccc3n2C)CC1 [Example 244] |
| < 10 µM | CCOC(=O)CCc1nc2c(C=O)c(O)ccc2n1C [Example 245] |
| > 10 µM | Cn1c(CCC(=O)O)nc2c(C=O)c(O)ccc21 [Example 246] |
| > 10 µM | CCOC(=O)CCc1nc2c(C=O)c(O)ccc2o1 [Example 247] |
| > 10 µM | O=Cc1c(O)ccc2oc(CCC(=O)O)nc12 [Example 248] |
| > 10 µM | COCCNC(=O)CCc1nc2c(C=O)c(O)ccc2o1 [Example 249] |
| > 10 µM | O=Cc1c(O)ccc2oc(CCC(=O)N3CCOCC3)nc12 [Example 250] |
| > 10 µM | CN1CCN(C(=O)CCc2nc3c(C=O)c(O)ccc3o2)CC1 [Example 251] |
| > 10 µM | CCNC(=O)CCc1nc2c(C=O)c(O)ccc2o1 [Example 252] |
| < 10 µM | O=Cc1c(O)ccc2oc(CCC(=O)NCCN3CCOCC3)nc12 [Example 253] |
| > 10 µM | CC(C(=O)N1CCOCC1)c1nc2c(C=O)c(O)ccc2o1 (stereo not shown) [Example 254] |
| < 10 µM | Cc1nc2c(C=O)c(O)ccc2o1 [Example 255] |
| > 10 µM | Cc1nc2ccc(O)c(C=O)c2o1 [Example 256] |
| > 10 µM | O=Cc1c(O)ccc2ocnc12 [Example 257] |
| > 10 µM | COCCNC(=O)c1cc2c(C=O)c(O)ccc2s1 [Example 258] |
| > 10 µM | O=Cc1c(O)ccc2sc(C(=O)N3CCOCC3)cc12 [Example 259] |
| > 10 µM | CN1CCN(C(=O)c2cc3c(C=O)c(O)ccc3s2)CC1 [Example 260] |
| < 10 µM | CCNC(=O)c1cc2c(C=O)c(O)ccc2s1 [Example 261] |

| EC50 | SMILES |
| --- | --- |
| < 10 µM | O=Cc1c(O)ccc2sc(C(=O)NCCN3CCOCC3)cc12 [Example 262] |
| > 10 µM | CN(C)CCNC(=O)c1cc2c(C=O)c(O)ccc2s1 [Example 263] |
| > 10 µM | COC(=O)Cc1cc2c(C=O)c(O)ccc2s1 [Example 264] |
| > 10 µM | O=Cc1c(O)ccc2sc(CC(=O)O)cc12 [Example 265] |
| < 10 µM | COCCNC(=O)CCc1cc2c(C=O)c(O)ccc2s1 [Example 266] |
| > 10 µM | CCOC(=O)CCc1cc2c(C=O)c(O)ccc2s1 [Example 267] |
| > 10 µM | O=Cc1c(O)ccc2sc(CCC(=O)N3CCOCC3)cc12 [Example 268] |
| > 10 µM | CCNC(=O)CCc1cc2c(C=O)c(O)ccc2s1 [Example 269] |
| < 10 µM | CN(C)CCNC(=O)CCc1cc2c(C=O)c(O)ccc2s1 [Example 271] |
| > 10 µM | COCCNC(=O)c1cc2c(C=O)c(O)ccc2[nH]1 [Example 273] |
| > 10 µM | O=Cc1c(O)ccc2[nH]c(C(=O)N3CCOCC3)cc12 [Example 274] |
| > 10 µM | CN1CCN(C(=O)c2cc3c(C=O)c(O)ccc3[nH]2)CC1 [Example 275] |
| > 10 µM | CCNC(=O)c1cc2c(C=O)c(O)ccc2[nH]1 [Example 276] |
| > 10 µM | O=Cc1c(O)ccc2[nH]c(C(=O)NCCN3CCOCC3)cc12 [Example 277] |
| > 10 µM | CN(C)CCNC(=O)c1cc2c(C=O)c(O)ccc2[nH]1 [Example 278] |
| > 10 µM | CCOC(=O)c1cc2c(C=O)c(O)ccc2[nH]1 [Example 279] |
| > 10 µM | CCOC(=O)c1cc2c(C=O)c(O)ccc2o1 [Example 280] |
| > 10 µM | O=Cc1c(O)ccc2oc(C(=O)O)cc12 [Example 281] |
| > 10 µM | COCCNC(=O)c1cc2c(C=O)c(O)ccc2o1 [Example 282] |
| > 10 µM | O=Cc1c(O)ccc2oc(C(=O)N3CCOCC3)cc12 [Example 283] |
| > 10 µM | CN1CCN(C(=O)c2cc3c(C=O)c(O)ccc3o2)CC1 [Example 284] |
| < 10 µM | CCNC(=O)c1cc2c(C=O)c(O)ccc2o1 [Example 285] |
| < 10 µM | O=Cc1c(O)ccc2oc(C(=O)NCCN3CCOCC3)cc12 [Example 286] |

| SMILES | EC50 |
| --- | --- |
| Cc1oc2c(C=O)c(O)ccc2c(=O)c1CC(=O)N1CCN(C)CC1 [Example 222] | < 10 µM |

Same assay, conditions: MM1.S, read-out: EC50_av

| SMILES | EC50 |
| --- | --- |
| CC(C)c1cc(=O)oc2c(C=O)c(O)ccc12 [Example 5] | < 10 µM |
| O=Cc1c(O)ccc2cc(C(=O)O)c(=O)oc12 [Example 8] | > 10 µM |
| Cc1c(-c2cccc(C(=O)N3CCN(C)CC3)c2)c(=O)oc2c(C=O)c(O)ccc12 [Example 10] | < 10 µM |

What follows are compounds tested against human IRE-1α (GST-IRE-1α) (Homo sapiens (Human), UniProt O75460) (assay: IRE-1α assay in vitro: cleavage of Cy5/BHQ2-labelled mini-XBP-1 mRNA stem-loop substrate). Details: average IC50 for inhibition of IRE-1α.
Format: biochemical
Procedure: In some embodiments IRE-la inhibitor compounds form a complex with IRE-1α. […] Other substrates also can be used to detect cleavage. See US 2007/0105123.
A fusion protein comprising glutathione S transferase (GST) and human IRE-1α (GST-IRE-1α) obtained from a 500 ml baculovirus-infected insect cell culture can be used to measure IRE-1α activity in vitro.
Five μl of a reaction mixture comprising IX reaction buffer (5× reaction buffer is 100 mM Hepes pH 7.5, 250 mM KOAc, 2.5 mM MgCl2), 3 mM DTT, and 0.4% polyethylene glycol water is added to each well of 384 well plates. Twenty-five nanoliters of a 1 mM test compound solution are added to test wells. Three μl of a […] IRE-1α preparation are added to each test well and to positive control wells (final concentration 5.82 ng/well). Negative control wells contain only reaction mixture and test compound.
After spinning the plates at 1200 rpm for 30 seconds, 3 μl of an IRE-1α human mini-XBP-1 mRNA stem-loop substrate 5′-[…]-3′ (SEQ ID NO:1), labeled with the fluorescent dye Cy5 at the 5′ end and Black Hole Quencher 2 (BH2) at the 3′ end, are added to each well of a control plate. The plates are again spun at 1200 rpm for 30 seconds. Final concentrations for the assay are: 63 nM IRE-1α substrate, 5.82 ng IRE-1α protein, and 2.5 μM test compound.
The plates are covered with lids and incubated for one hour at 30° C. The plates are then transferred to an ACQUEST™ microplate reader. Data is analyzed using data analysis software, and the percent activity of IRE-1α is calculated.
IC50 for inhibition of IRE-1α of compounds identified in Table 1 was measured as described in EXAMPLE 35.

Sequence of human IRE-1α (GST-IRE-1α) (O75460 19-977): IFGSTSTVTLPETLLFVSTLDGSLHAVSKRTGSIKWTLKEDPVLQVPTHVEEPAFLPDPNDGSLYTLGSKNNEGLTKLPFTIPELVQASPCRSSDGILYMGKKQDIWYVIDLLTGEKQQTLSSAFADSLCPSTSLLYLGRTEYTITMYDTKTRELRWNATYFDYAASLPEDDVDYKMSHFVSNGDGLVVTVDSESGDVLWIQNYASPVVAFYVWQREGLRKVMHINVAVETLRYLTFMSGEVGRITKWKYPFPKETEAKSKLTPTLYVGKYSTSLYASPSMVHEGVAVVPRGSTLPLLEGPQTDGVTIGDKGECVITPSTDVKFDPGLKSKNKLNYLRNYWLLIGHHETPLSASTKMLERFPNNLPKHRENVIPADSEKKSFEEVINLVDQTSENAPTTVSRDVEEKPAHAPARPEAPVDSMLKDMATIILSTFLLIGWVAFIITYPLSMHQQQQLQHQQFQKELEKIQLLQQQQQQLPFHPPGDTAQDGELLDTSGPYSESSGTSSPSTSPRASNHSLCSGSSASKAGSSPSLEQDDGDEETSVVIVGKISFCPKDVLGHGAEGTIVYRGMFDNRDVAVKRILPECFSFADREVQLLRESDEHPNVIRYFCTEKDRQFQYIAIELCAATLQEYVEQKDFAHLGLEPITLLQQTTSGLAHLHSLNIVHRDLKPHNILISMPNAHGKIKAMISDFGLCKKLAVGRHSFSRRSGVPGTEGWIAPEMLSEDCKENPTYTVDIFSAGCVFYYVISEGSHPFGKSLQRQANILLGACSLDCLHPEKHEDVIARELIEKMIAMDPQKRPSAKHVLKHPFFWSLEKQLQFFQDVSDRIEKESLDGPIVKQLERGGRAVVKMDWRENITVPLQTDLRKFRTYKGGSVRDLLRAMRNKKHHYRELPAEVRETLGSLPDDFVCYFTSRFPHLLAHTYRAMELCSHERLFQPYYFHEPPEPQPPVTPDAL

| IC50 | SMILES |
| --- | --- |
| < 0.1 µM | Cc1c(-c2ccc(C(=O)NCCN3CCOCC3)cc2)c(=O)oc2c(C=O)c(O)ccc12 [Example 3] |
| > 10 µM | CN1CCN(CC(=O)N2CCc3c(ccc(O)c3C=O)C2)CC1 [Example 30] |
| > 10 µM | O=Cc1c(O)ccc2c1CCN(C(=O)c1cccnc1)C2 [Example 31] |
| < 10 µM | Cc1nc(N2CCc3c(ccc(O)c3C=O)C2)sc1C(=O)N1CCN(C)CC1 [Example 32] |

| SMILES | IC50 |
| --- | --- |
| CC(C)c1cc(=O)oc2c(C=O)c(O)ccc12 [Example 5] | < 0.1 µM |
| O=Cc1c(O)ccc2cc(C(=O)O)c(=O)oc12 [Example 8] | > 10 µM |
| Cc1c(-c2cccc(C(=O)N3CCN(C)CC3)c2)c(=O)oc2c(C=O)c(O)ccc12 [Example 10] | < 0.1 µM |
